Reference: patent US20260248787A9, “MEDICAMENT FOR TREATING CANCER COMPRISING OPTICALLY ACTIVE AZABICYCLO RING DERIVATIVE” (Sumitomo Pharma Co., Ltd., priority 2023, published 2026)
Marks after values point to notes of the source that are not given here.

Assay: Phase 1/2 first-in-human clinical study, safety evaluation (DLT, TEAE, SAE)

## C=C1C[C@@H]2CC[C@H]1[C@@H](C(=O)N1CCC3(CC1)CN(c1ncncc1Oc1ccc(F)cc1C(=O)N(C(C)C)C(C)C)C3)N2 [the present compound, 5-fluoro-2-[(4-{7-[(1S,3S,4R)-5-methylidene-2-azabicyclo[2.2.2]octane-3-carbonyl]-2,7-diazaspiro[3.5]nonan-2-yl}pyrimidin-5-yl)oxy]-N,N-di(propan-2-yl)benzamide]
40 mg BID Arm B (N=4; one patient not DLT evaluable)
  Patients with any DLTs: 0* n (%) and (0.0) n (%)
24 patients enrolled
  cases of differentiation syndrome in patients with MLLr or NPM1m: no cases
  grade of the majority of TEAEs related to the present compound: Grade 1 or 2
  patients who experienced at least one TEAE: 24 patients
  related TEAE leading to dose withdrawn or dose reduction: No related TEAE leading to dose withdrawn or dose reduction
24 patients enrolled (40-120 mg BID Arm A, 40-60 mg BID Arm B)
  patients who developed DLT: none
24 patients, Arm A + Arm B
  patients with fatal SAEs, total (all unrelated): 8 patients
  patients with serious adverse events (SAEs), total: 15 patients
40 to 300 mg BID (Examples 1 and 5)
  safety in humans: confirmed to be safe
43 patients, 40-200 mg BID
  Treatment-related QT interval prolongation events: not reported
  cases of differentiation syndrome in patients with MLLr or NPM1m: no cases
  drug-related AE resulting in permanent treatment discontinuation: No drug-related AE
  grade of the majority of TEAEs: Grade 1 or Grade 2
  treatment-related deaths: no treatment-related deaths
43 patients, any dose level of 40-200 mg
  DLTs: No DLTs
43 patients, patient with TP-53 mutation
  cases of suspected differentiation syndrome related to the present compound: One
57 patients, 40-300 mg
  Differentiation syndrome (DS): 3 patients
  drug-related AE resulting in permanent treatment discontinuation: No drug-related AE
  treatment-related deaths: no treatment-related deaths
57 patients, any dose level of 40-300 mg
  DLTs: no DLTs
Arm A N=14, Any Grade
  Patients with Any TEAE: 14 (100.0) n (%)
  TEAE: Alanine aminotransferase increased: 1 (7.1) n (%)
  TEAE: Anaemia: 5 (35.7) n (%)
  TEAE: Aspartate aminotransferase increased: 2 (14.3) n (%)
  TEAE: Blood and lymphatic system disorders: 10 (71.4) n (%)
  TEAE: Constipation: 3 (21.4) n (%)
  TEAE: Decreased appetite: 3 (21.4) n (%)
  TEAE: Disease progression: 1 (7.1) n (%)
  TEAE: Dyspnoea: 3 (21.4) n (%)
  TEAE: Epistaxis: 1 (7.1) n (%)
  TEAE: Fatigue: 3 (21.4) n (%)
  TEAE: Gastrointestinal disorders: 9 (64.3) n (%)
  TEAE: General disorders and administration site disorders: 8 (57.1) n (%)
  TEAE: Headache: 5 (35.7) n (%)
  TEAE: Hemorrhoids: 0 n (%)
  TEAE: Hypertriglyceridaemia: 1 (7.1) n (%)
  TEAE: Hypoalbuminaemia: 3 (21.4) n (%)
  TEAE: Hypocalcaemia: 3 (21.4) n (%)
  TEAE: Hypokalaemia: 2 (14.3) n (%)
  TEAE: Hypomagnaesemia: 3 (21.4) n (%)
  TEAE: Hyponatraemia: 4 (28.6) n (%)
  TEAE: Infections and Infestations: 8 (57.1) n (%)
  TEAE: Investigations: 10 (71.4) n (%)
  TEAE: Metabolism and nutrition disorders: 11 (78.6) n (%)
  TEAE: Musculoskeletal and connective tissue disorders: 7 (50.0) n (%)
  TEAE: Nausea: 5 (35.7) n (%)
  TEAE: Nervous System Disorders: 7 (50.0) n (%)
  TEAE: Oedema peripheral: 2 (14.3) n (%)
  TEAE: Pain in extremity: 3 (21.4) n (%)
  TEAE: Platelet count decreased: 3 (21.4) n (%)
  TEAE: Pneumonia: 2 (14.3) n (%)
  TEAE: Pruritus: 3 (21.4) n (%)
  TEAE: Pyrexia: 3 (21.4) n (%)
  TEAE: Respiratory, thoracic and mediastinal disorders: 6 (42.9) n (%)
  TEAE: Sepsis: 2 (14.3) n (%)
  TEAE: Skin and subcutaneous tissue disorders: 5 (35.7) n (%)
  TEAE: Stomatitis: 1 (7.1) n (%)
  TEAE: Vomiting: 3 (21.4) n (%)
  related TEAE: Aspartate aminotransferase increased: 0 n (%)
  related TEAE: Blood and lymphatic system disorders: 0 n (%)
  related TEAE: Decreased appetite: 2 (14.3) n (%)
  related TEAE: Differentiation syndrome: 1 (7.1) n (%)
  related TEAE: Gastrointestinal disorders: 2 (14.3) n (%)
  related TEAE: General disorders and administration site conditions: 1 (7.1) n (%)
  related TEAE: Headache: 1 (7.1) n (%)
  related TEAE: Hypertriglyceridaemia: 0 n (%)
  related TEAE: Hyperuricaemia: 1 (7.1) n (%)
  related TEAE: Increased appetite: 1 (7.1) n (%)
  related TEAE: Investigations: 0 n (%)
  related TEAE: Leukocytosis: 0 n (%)
  related TEAE: Metabolism and nutrition disorders: 4 (28.6) n (%)
  related TEAE: Nausea: 2 (14.3) n (%)
  related TEAE: Neoplasms benign, malignant and unspecified (incl cysts and polyps): 1 (7.1) n (%)
  related TEAE: Nervous system disorders: 1 (7.1) n (%)
  related TEAE: Thirst: 1 (7.1) n (%)
  related TEAE: Vomiting: 2 (14.3) n (%)
Arm A N=14, ≥Grade 3
  Patients with Any TEAE: 14 (100.0) n (%)
  TEAE: Alanine aminotransferase increased: 0 n (%)
  TEAE: Anaemia: 4 (28.6) n (%)
  TEAE: Aspartate aminotransferase increased: 1 (7.1) n (%)
  TEAE: Blood and lymphatic system disorders: 8 (57.1) n (%)
  TEAE: Constipation: 0 n (%)
  TEAE: Decreased appetite: 0 n (%)
  TEAE: Disease progression: 1 (7.1) n (%)
  TEAE: Dyspnoea: 1 (7.1) n (%)
  TEAE: Epistaxis: 0 n (%)
  TEAE: Fatigue: 0 n (%)
  TEAE: Gastrointestinal disorders: 1 (7.1) n (%)
  TEAE: General disorders and administration site disorders: 2 (14.3) n (%)
  TEAE: Headache: 0 n (%)
  TEAE: Hemorrhoids: 0 n (%)
  TEAE: Hypertriglyceridaemia: 0 n (%)
  TEAE: Hypoalbuminaemia: 0 n (%)
  TEAE: Hypocalcaemia: 0 n (%)
  TEAE: Hypokalaemia: 0 n (%)
  TEAE: Hypomagnaesemia: 0 n (%)
  TEAE: Hyponatraemia: 0 n (%)
  TEAE: Infections and Infestations: 6 (42.9) n (%)
  TEAE: Investigations: 4 (28.6) n (%)
  TEAE: Metabolism and nutrition disorders: 1 (7.1) n (%)
  TEAE: Musculoskeletal and connective tissue disorders: 0 n (%)
  TEAE: Nausea: 0 n (%)
  TEAE: Nervous System Disorders: 2 (14.3) n (%)
  TEAE: Oedema peripheral: 0 n (%)
  TEAE: Pain in extremity: 0 n (%)
  TEAE: Platelet count decreased: 1 (7.1) n (%)
  TEAE: Pneumonia: 2 (14.3) n (%)
  TEAE: Pruritus: 0 n (%)
  TEAE: Pyrexia: 0 n (%)
  TEAE: Respiratory, thoracic and mediastinal disorders: 2 (14.3) n (%)
  TEAE: Sepsis: 2 (14.3) n (%)
  TEAE: Skin and subcutaneous tissue disorders: 0 n (%)
  TEAE: Stomatitis: 0 n (%)
  TEAE: Vomiting: 0 n (%)
  related TEAE: Aspartate aminotransferase increased: 0 n (%)
  related TEAE: Blood and lymphatic system disorders: 0 n (%)
  related TEAE: Decreased appetite: 0 n (%)
  related TEAE: Differentiation syndrome: 1 (7.1) n (%)
  related TEAE: Gastrointestinal disorders: 0 n (%)
  related TEAE: General disorders and administration site conditions: 0 n (%)
  related TEAE: Headache: 0 n (%)
  related TEAE: Hypertriglyceridaemia: 0 n (%)
  related TEAE: Hyperuricaemia: 0 n (%)
  related TEAE: Increased appetite: 0 n (%)
  related TEAE: Investigations: 0 n (%)
  related TEAE: Leukocytosis: 0 n (%)
  related TEAE: Metabolism and nutrition disorders: 0 n (%)
  related TEAE: Nausea: 0 n (%)
  related TEAE: Neoplasms benign, malignant and unspecified (incl cysts and polyps): 1 (7.1) n (%)
  related TEAE: Nervous system disorders: 0 n (%)
  related TEAE: Thirst: 0 n (%)
  related TEAE: Vomiting: 0 n (%)
Arm B N=10, Any Grade
  Patients with Any TEAE: 10 (100.0) n (%)
  TEAE: Alanine aminotransferase increased: 2 (20.0) n (%)
  TEAE: Anaemia: 1 (10.0) n (%)
  TEAE: Aspartate aminotransferase increased: 2 (20.0) n (%)
  TEAE: Blood and lymphatic system disorders: 3 (30.0) n (%)
  TEAE: Constipation: 1 (10.0) n (%)
  TEAE: Decreased appetite: 0 n (%)
  TEAE: Disease progression: 2 (20.0) n (%)
  TEAE: Dyspnoea: 1 (10.0) n (%)
  TEAE: Epistaxis: 2 (20.0) n (%)
  TEAE: Fatigue: 2 (20.0) n (%)
  TEAE: Gastrointestinal disorders: 6 (60.0) n (%)
  TEAE: General disorders and administration site disorders: 3 (30.0) n (%)
  TEAE: Headache: 1 (20.0) n (%)
  TEAE: Hemorrhoids: 2 (20.0) n (%)
  TEAE: Hypertriglyceridaemia: 2 (20.0) n (%)
  TEAE: Hypoalbuminaemia: 0 n (%)
  TEAE: Hypocalcaemia: 1 (10.0) n (%)
  TEAE: Hypokalaemia: 3 (30.0) n (%)
  TEAE: Hypomagnaesemia: 0 n (%)
  TEAE: Hyponatraemia: 0 n (%)
  TEAE: Infections and Infestations: 6 (60.0) n (%)
  TEAE: Investigations: 3 (30.0) n (%)
  TEAE: Metabolism and nutrition disorders: 5 (50.0) n (%)
  TEAE: Musculoskeletal and connective tissue disorders: 2 (20.0) n (%)
  TEAE: Nausea: 3 (30.0) n (%)
  TEAE: Nervous System Disorders: 2 (20.0) n (%)
  TEAE: Oedema peripheral: 0 n (%)
  TEAE: Pain in extremity: 1 (10.0) n (%)
  TEAE: Platelet count decreased: 0 n (%)
  TEAE: Pneumonia: 2 (20.0) n (%)
  TEAE: Pruritus: 0 n (%)
  TEAE: Pyrexia: 0 n (%)
  TEAE: Respiratory, thoracic and mediastinal disorders: 3 (30.0) n (%)
  TEAE: Sepsis: 2 (20.0) n (%)
  TEAE: Skin and subcutaneous tissue disorders: 1 (10.0) n (%)
  TEAE: Stomatitis: 2 (20.0) n (%)
  TEAE: Vomiting: 1 (10.0) n (%)
  related TEAE: Aspartate aminotransferase increased: 1 (10.0) n (%)
  related TEAE: Blood and lymphatic system disorders: 1 (10.0) n (%)
  related TEAE: Decreased appetite: 0 n (%)
  related TEAE: Differentiation syndrome: 0 n (%)
  related TEAE: Gastrointestinal disorders: 1 (10.0) n (%)
  related TEAE: General disorders and administration site conditions: 0 n (%)
  related TEAE: Headache: 0 n (%)
  related TEAE: Hypertriglyceridaemia: 1 (10.0) n (%)
  related TEAE: Hyperuricaemia: 0 n (%)
  related TEAE: Increased appetite: 0 n (%)
  related TEAE: Investigations: 1 (10.0) n (%)
  related TEAE: Leukocytosis: 1 (10.0) n (%)
  related TEAE: Metabolism and nutrition disorders: 1 (10.0) n (%)
  related TEAE: Nausea: 1 (10.0) n (%)
  related TEAE: Neoplasms benign, malignant and unspecified (incl cysts and polyps): 0 n (%)
  related TEAE: Nervous system disorders: 0 n (%)
  related TEAE: Thirst: 0 n (%)
  related TEAE: Vomiting: 1 (10.0) n (%)
Arm B N=10, ≥Grade 3
  Patients with Any TEAE: 8 (80.0) n (%)
  TEAE: Alanine aminotransferase increased: 0 n (%)
  TEAE: Anaemia: 0 n (%)
  TEAE: Aspartate aminotransferase increased: 1 (10.0) n (%)
  TEAE: Blood and lymphatic system disorders: 3 (30.0) n (%)
  TEAE: Constipation: 0 n (%)
  TEAE: Decreased appetite: 0 n (%)
